# Assays:
# male golden hamsters = test: Resident/intruder paradigm of offensive aggression; type: in vivo, Syrian golden hamsters (Mesocricetus auratus)
# Experimental: Male Syrian golden hamsters (Mesocricetus auratus) (140-150 g) obtained from Harlan Sprague-Dawley Laboratories (Indianapolis, Ind.) were housed individually in Plexiglas cages (24 cm×24 cm×20 cm), maintained on a reverse light:dark cycle (14L:10D; lights on at 19:00 hr) and provided food and water ad libitum. Animals were acclimated to the reverse light:dark cycle for at least two weeks before testing. All behavioral tests were conducted during the dark phase of the circadian cycle. All animals were acquired and cared for in accordance with the guidelines published in the Guide for the Care and Use of Laboratory Animals (National Institutes of Health Publications No. 85-23, Revised 1985).
# (§1) Agonistic behavior can be classified as either offensive or defensive aggression (Blanchard and Blanchard, 1977; Adams, […]; Albert and Walsh, 1984). Offensive aggression is characterized by the aggressor initiating an attack on an opponent, while defensive aggression lacks active approach. Both types of aggression have their own unique neurobehavioral systems. The stimuli that elicit offensive and defense attack are different, as are the sequences of behaviors that accompany each agonistic response. […] Offensive aggression is easily studied using male golden hamsters tested in a resident/intruder paradigm, an established model of offensive aggression (Ferris and Potegal 1988). Placing an unfamiliar male hamster into the home cage of another male hamster elicits a well-defined sequence of agonistic behaviors from the resident that includes offensive aggression.
# (§2) Hamsters are nocturnal and as such all behavioral tests were performed during the first four hrs of the dark phase under dim red illumination. The resident was scored for offensive aggression, e.g., latency to bite the intruder, the total number of bites, total contact time with the intruder and flank marking over a 10 min test period (Ferris and Potegal, 1988). Flank marking is a form of olfactory communication in which a hamsters arches its back and rubs pheromone producing flank glands against objects in the environment (Johnson, 1986).
# Parametric data, i.e., latencies and contact time, were analyzed with a one-way ANOVA followed by Newman-Keuls post hoc tests. Non parametric data, i.e., number of bites and flank marks, were analyzed with Kruskal-Wallis tests followed by Mann-Whitney U tests to determine differences between groups. Two sample comparisons were analyzed with paired and unpaired t-Tests for parametric data and Wilcoxon and Mann-Whitney Tests for paired and unpaired non-parametric data, respectively.
# as §1, with “by an” for “by the”, “an opponent; while,” for “an opponent, while”, “Potegal 1988) in the context of defending the home burrow.” for “Potegal 1988).”
# as §2, with “Flank marking is a form of olfactory communication in which a hamsters arches its back and rubs pheromone producing flank glands against objects in the environment (Johnson, 1986).” left out
# golden hamsters = test: Seed finding model of anxiety; type: in vivo, Syrian golden hamsters (Mesocricetus auratus)
# From the text: Clavulanic acid (CLAV) is structurally similar to the beta-lactam antibiotics. A most robust and simple bioassay for screening beta-lactams for CNS activity is the golden hamster seed finding model of anxiety. Briefly, hamsters are deprived of food overnight. The following day they are exposed to the additional stress of being taken from their home cage and placed in a novel environment for a few minutes. This manipulation stimulates the release of the stress hormone cortisol (FIG. 37). During their absence from the home cage, sunflower seeds are hidden under the bedding in one of the corners. When returned to the home cage, hamsters routinely scramble along the walls for 1-2 min before settling down, locating and eating the seeds. However, animals treated with the benzodiazepine anxiolytic chlordiazepoxide find seeds in less than 10 sec.
# Male, Syrian golden hamsters (Mesocricetus auratus) (120-130 g) obtained from Harlan Sprague-Dawley Laboratories (Indianapolis, Ind.) were housed individually in Plexiglas cages (24 cm×24 cm×20 cm), maintained on a reverse light:dark cycle (14L:10D; lights on at 19:00 hr) and provided food and water ad libitum. A range of concentrations of CLAV (saline vehicle, 0.1, 1.0, 10, 100 1,000 ng/kg) were tested in six groups of hamsters (4-8/group)(FIG. 25). All tests were conducted during the dark phase of the circadian cycle under dim red illumination. Prior to testing all animals were fasted for 20-24 hrs. Ninety min after intraperitoneal (IP) injection of drug, animals were taken from their home cage and placed into a holding cage for 2 min. During their absence, six sunflower seeds were buried under the bedding in one corner of their home cage. Animals were placed back into their home cage randomly facing any one of the empty corners and timed for their latency to find the seeds in a five min observation period. Latency times were analyzed with a one-way ANOVA followed by Scheffe's post hoc tests. Assumption of equal variances was tested (Hartley's F-max=2.1 p>0.05)
# It was hypothesized that CLAV functioned as an anxiolytic in the seed finding assay by blocking NAALADase activity in the brain. If this notion were true then it would be predicted that drugs known to block NAALADase should also enhance seed finding. To this end, animals were treated with N-acetyl-beta-aspartyl-glutamic acid (beta-NAAG), a competitive inhibitor of NAALADase (Serval et al., 1992) and tested in the seed finding model of anxiety. The study was similar to that outlined in Section I with one notable exception. […] Beta-NAAG (FW 304) was given in a dose of 3 ng in a volume of 1 μl saline ICV. The average adult hamster brain weights ca. 1.2 g of which 22% is extracellular fluid. The estimated beta-NAAG concentration was 11 ng/ml or 36 nM.
# Two groups of six animals each were fasted overnight as previously described and tested the following day. One group was treated with beta-NAAG and the other saline vehicle and one hr later timed for latency to find the hidden sunflower seeds. A Student t-test for unpaired data was used for statistical comparisons.
# [1] = 50 μg/kg IP, 90 min, thirteen hamsters
compound,measurement,setting,value
"O=C(O)[C@H]1/C(=C/CO)O[C@@H]2CC(=O)N21 [CLAV, Clavulanic acid]",contact time with the intruder,"male golden hamsters; CLAV 200 μg/kg IP, 90 min",no significant main effect
same,flank marking,"male golden hamsters; CLAV 200 μg/kg IP, 90 min",no significant effect
same,latency to bite the intruder,"male golden hamsters; CLAV 200 μg/kg IP, 90 min, trend toward significance",no significant main effect
same,median number of bites,"male golden hamsters; CLAV 200 μg/kg IP, 90 min, thirteen for vehicle",six
same,aggressive behavior,"male golden hamsters; pilot studies, 1.0 μg/kg IP",no effect
same,latency to find the sunflower seeds vs vehicle,"golden hamsters; 1 ng/kg IP, 90 min",not significantly different
same,dose with maximal efficacy in the seed finding test,golden hamsters; IP,10 ng/kg body weight
same,latency to find the sunflower seeds,"golden hamsters; doses of 10 ng and above (up to 1,000 ng/kg) IP, 90 min",less than 8.0 sec
"CO[C@@]1(NC(=O)C(C(=O)O)c2ccc(O)cc2)C(=O)N2C(C(=O)O)=C(CSc3nnnn3C)CO[C@@H]21 (stereo partly drawn) [Mox, 7-β-[2-carboxy-2-(4-hydroxyphenyl)acetamido]-7α-methoxy-3-[[(1-methyl-1H-tetrazol-5-yl)thio]methyl]-1-oxa-1-dethia-3-cephem-4-carboxylic acid]",bite latency,male golden hamsters; [1],significantly increased
same,contact time,male golden hamsters; [1],no significant change
same,flank marking,male golden hamsters; [1],no significant change
same,number of bites,male golden hamsters; [1],reduced
same,contact time,"male golden hamsters; 50 mg/kg IP, 90 min",significantly reduced
same,flank marking,"male golden hamsters; 50 mg/kg IP, 90 min",did not reach significance
same,number of bites,"male golden hamsters; 50 mg/kg IP, 90 min, 10 min observation",significantly reduced
same,mean latency to bite,"male golden hamsters; 50 mg/kg IP, 90 min after treatment, 10 min observation, vs saline",over six
same,animals that never bite in the 10 min observation period,"male golden hamsters; dose response, 50 μg",three of six
same,number of bites,"male golden hamsters; dose response, 50 μg",significant reduction
same,delay of bite latency vs vehicle,"male golden hamsters; dose response, 50 μg/kg",over seven
same,contact time,"male golden hamsters; dose response, 500 μg and 5 mg",significantly reduced
same,bite latency,"male golden hamsters; dose response, 500 μg and 5.0 mg",significantly increased
same,flank marking,"male golden hamsters; dose response, 0.5-5000 μg/kg, between groups",not significantly different
same,behavioral measures of offensive aggression,"male golden hamsters; dose response, doses of 5.0 μg and less",no effect
same,contact time,"male golden hamsters; equimolar (90 μM) IP, 90 min",no significant treatment effect
same,flank marking,"male golden hamsters; equimolar (90 μM) IP, 90 min",no significant treatment effect
same,number of bites,"male golden hamsters; equimolar (90 μM) IP, 90 min",significantly reduced
same,latency to bite,"male golden hamsters; equimolar (90 μM, equal to 50 μg/kg Mox) IP, 90 min",significantly delayed
same,change in seed finding time,golden hamsters; dose not given,reduction in seed finding time from minutes to seconds

# From US7842683B2, “Neurotherapeutic compositions and method” (Revaax Pharmaceuticals, LLC, priority 1999, dated 2010)
